{"source": "patent US20160287536A1", "about": "“Composition” (THE UNIVERSITY OF NOTTINGHAM, priority 2013, published 2016)", "key": {"[1]": {"system": "nitric oxide synthase", "settings": "100 μM; cited from earlier work"}, "[2]": {"system": "vascular preparations", "settings": "100 μM; cited from earlier work"}, "[3]": {"system": "porcine isolated tail artery", "procedure": "U46619 was added to produce a contraction equivalent to 60% of KCl followed by sufficient to forskolin to causes a relaxation back to baseline. Cumulative concentration response curves to brimondine and phenylephrine were elicited in the presence and absence of the combination of U4/For. Responses have been expressed a percent of the contraction to 60 mM KCl and represent the mean of 5-6 separate observations."}, "[4]": {"system": "sheep isolated rectal vein", "assay": "Wire myography, sheep isolated rectal vein (SRV)", "format": "cell-based", "settings": "SRV", "procedure": "Sheep mesenteric tissue, from the distal sigmoid colon to the anus, was obtained from a local abattoir. The sheep tissue was delivered in a dry bag and stored at 4° C. until dissected. The bundle of sheep rectal vessels was dissected from its mesentery within four hours of arrival from the abattoir. The vascular bundle was then kept in the pre-oxygenated Krebs-Henseleit buffer solution at 4° C. until used (on the same day as a preferential method or on the following day after storage overnight). No experiments were conducted on tissue stored for more than 24 hours after dissection. The Krebs solution consisted of 118.4 mM NaCl, 4.7 mM KCl, 1.2 mM MgSO4, 1.2 mM KH2PO4, 1.25 mM CaCl2, 24.9 mM NaHCO3, and 11.1 mM glucose.\nBefore setting a wire myography experiment, the remaining loose connective tissue was meticulously removed from the rectal vessels. The internal diameter of sheep isolated rectal artery and vein was 450-650 μm and 500-1000 μm, respectively. Each 5-mm ring segment of the ‘clean’ vessels was then suspended between two 200-μm wire supports in an organ bath containing 20 ml Krebs-Henseleit buffer solution. The upper supporting wire was attached to an isometric force transducer, while the lower wire was fixed steadily to a clamped glass rod. The bath solution was maintained at 37° C., and continuously gassed with 95% O2 and 5% CO2. Isometric tension was continuously recorded using a PowerLab 4/25 via QUAD Bridge amplifier (ADInstruments, Inc, Australia).\nAfter a 10-minute equilibration period, an initial tension of 8 gram weight (g wt) was gradually applied for an arterial segment and left to relax for 30 minutes. The final tension of SRA varied between 1.0 g wt and 2.8 g wt. For a venous segment, an initial tension of 1 g wt was applied and, 10 minutes later, the resting tension was finally re-adjusted to reach a tension of 0.5 g wt. Then the vein was left to relax for further 20 minutes. The final tension of SRV ranged from 0.08 to 0.25 g wt. Once the vascular segments were fully settled, the tissues were tested for contractile activity with 60 mM KCl on three occasions. The vascular contraction was allowed to reach maximum, which generally took about 1-4 minutes. Each KCl challenge was followed by two washouts of 37° C. Krebs solution and the tissues were allowed to rest for 20 minutes between the challenges. The maximum contraction (tension) produced by the third administration of 60 mM KCl was used as a reference contraction to which subsequent responses were compared. After the final (3rd) KCl challenge, the tissues were washed and left for 60 minutes before α-adrenoceptor agonist was administrated. To construct an agonist concentration-response curves (CRC), 0.3-0.4 log 10 increments of agonist solution was added e.g. at the agonist concentration of 100 nM, 200 nM, 500 nM, 1 μM, 2 μM, 5 μM, and so on. Each response was allowed to reach equilibrium or plateau before the next dose of agonist was added. The maximal response to the agonist was considered when no further increase in response occurred upon the addition of two or more consecutive doses of agonist.\nIn the case of the noradrenaline study, 10 μM cocaine was added into the organ bath 40 minutes prior to the administration of noradrenaline for inhibiting the uptake of noradrenaline by neural tissue within the vascular wall (re-uptake 1) (Westfall & Westfall, 2006 In Goodman & Gilman's the Pharmacological Basis of Therapeutics. eds Brunton, L. L., Lazo, J. S. & Paker, K. L. pp. 137-181. New York: McGraw Hill). Regarding KCl-induced vasoconstriction, the CRC was generated by the contractile response to 6 mM increments of KCl solution, starting from 0 mM to 60 mM.\nConsecutive CRCs were generated to each agonist, separated by 60 minutes, and if there was no difference in the maximum response (Emax) and pEC50 (defined as the negative logarithm of the concentration required to produce 50% of the maximum response) then a paired CRC protocol was used throughout. […]"}, "[5]": {"molecular_target": "α2-adrenoceptor", "assay": "Saturation radioligand binding of [^3H]-RX821002 to sheep anorectal tissue membranes", "procedure": "Fresh sheep anorectal tissues were dissected from whole buttock from sheep within four hours of slaughter. The buttocks were delivered in a dry bag and stored at 4° C. until dissected. The tissues used in this experiment included rectal smooth muscle (RSM), rectal mucosa (RM), anal mucosa (AM), internal anal sphincter (IAS), sheep rectal artery (SRA), sheep rectal vein (SRV), and the terminal branches of rectal vessels (TB). The dissected tissues were kept at −20° C. until used. Prior to starting an experiment, the tissue was removed from the freezer and allowed to defrost on ice. […] Non-specific binding was determined using an excessive amount of unlabelled specific receptor ligand. […] Three ml of scintillation fluid (PerkinElmer, UK) was subsequently added into each vial, and left at least 8 hours (preferably overnight) before processing for radioactivity measurement. The amount of radioactivity bound to the filters was measured using a liquid scintillation analyser (Tri-Carb 2100TR, PerkinElmer, UK). The radioactivity was reported as disintegrations per minute (dpm). […] Specific binding of the radioligand to the membranes was calculated by subtracting the non-specific binding from the total binding. Receptor density (Bmax) and ligand dissociation constant (Kd) were then calculated using the specific saturation binding curve of each experiment."}, "[6]": {"molecular_target": "α2-adrenoceptor", "settings": "porcine vessels; cited from earlier work"}}, "note": "Like-named read-outs stand apart in the source and are kept apart here."}
{"compound": "CN(C)C(N)=NCCC[C@H](N)C(=O)O", "note": "[ADMA, Asymmetric dimethyl arginine]", "values": [{"measurement": "inhibition of nitric oxide synthase", "setting": "[1]", "result": "inhibit nitric oxide synthase"}, {"measurement": "effect on vasoconstrictor responses to phenylephrine", "setting": "[2]", "result": "enhance the vasoconstrictor responses to phenylephrine"}]}
{"compound": "Brc1c(NC2=NCCN2)ccc2nccnc12", "note": "[UK14304, brimonidine]", "values": [{"measurement": "contractile responses in the presence of the combination of U46619 and forskolin", "setting": "[3]", "result": "enhanced"}, {"measurement": "contractile response", "setting": "[4]", "result": "concentration-dependent contractions"}, {"measurement": "veins with concentration-dependent contraction", "setting": "[4]; the rest <10% of the response to 60 mM KCl", "result": "6 out of 12"}]}
{"compound": "COC1(C2=NCCN2)COc2ccccc2O1", "note": "(centres unmarked) [[^3H]-RX821002, 2-(2-methoxy-1,4-benzodioxan-2-yl)-2-imidazoline]", "values": [{"measurement": "Kd", "setting": "[5]; sheep rectal arteries, read-out: Kd of radioligand for α2-adrenoceptor", "result": 1.42, "unit": "nM"}, {"measurement": "Kd", "setting": "[5]; sheep rectal vein and terminal branches of sheep rectal vessels, read-out: Kd of α2-adrenoceptor", "result": "~0.3", "unit": "nM"}, {"measurement": "Kd", "setting": "[6]", "result": "1.3 to 2.2", "unit": "nM"}]}
